Assay results published in patent US4632940A, “N-substituted 1-(4'-alkylsulfonylphenyl)-2-amino-1,3-propanediols, pharmaceutical compositions containing them, having local anesthetic activity” (Zambon S.p.A., priority 1983, dated 1986).
Where a name gives a salt, the structure may show the parent alone.

How the values were obtained:
Assay type in all cases: in vivo
mouse = assay: in vivo; conditions: for LD50: mouse, i.v., administered as hydrochloride, observed for 24 hrs, 1440 min; for Therapeutic Index LD50/ED50: ratio of LD50 (mouse, i.v.) to ED50 (guinea pig local infiltration)
Source text: (§1) Toxicity study in mouse has been performed by intravenous administration.

[1] = tested on: cutaneous reflex after stimulation (guinea-pig back); assay: Local anesthetic activity, intradermal infiltration in the back of guinea-pig (Bulbring and Wayda); conditions: drug concentration inhibiting 50% of the occurence of the cutaneous reflex, 95% c.l. in parentheses
in vivo = conditions: in vivo, iv
Source text: as §1

Compound: CC(COc1ccccc1)N[C@@H](CO)[C@@H](O)c1ccc(S(C)(=O)=O)cc1 (relative stereo) [Z. 1402, (1S,2S)-1-(4-methylsulfonylphenyl)-2-(1-methyl-2-phenoxyethylamino)-1,3-propanediol]
- LD50 (mouse): 0.30 mmols/kg/iv
- Therapeutic Index LD50/ED50 (mouse): 4
- LOCAL ANESTHETIC ACTIVITY ED50 (c.l. 95%) [1]: 0.075 (0.05-0.1) mM

Compound: CC(COc1ccccc1)N[C@@H](CO)[C@@H](O)c1ccc(S(C)(=O)=O)cc1 (relative stereo) [Z. 1403, (1S,2S)-1-(4-methylsulfonylphenyl)-2-(1-methyl-2-phenoxyethylamino)-1,3-propanediol]
- LD50 (mouse): 0.80 mmols/kg/iv
- Therapeutic Index LD50/ED50 (mouse): 16
- LOCAL ANESTHETIC ACTIVITY ED50 (c.l. 95%) [1]: 0.049 mM

Compound: CCN(CC)CC(=O)Nc1c(C)cccc1C [Lidocaine, reference compound]
- LOCAL […] ED50 (c.l. 95%) [1]: 0.49 (0.34-0.71) mM

Compound: CCN(CC)CCOC(=O)c1ccc(N)cc1 [Procaine, reference compound]
- LOCAL ANESTHETIC ACTIVITY ED50 (c.l. 95%) [1]: 2.3 (1.7-3.1) mM

Compound: CS(=O)(=O)c1ccc([C@@H](O)[C@@H](CO)NCCC(c2ccccc2)c2ccccc2)cc1 [Z. 1395, (1R,2R)-1-(4-methylsulfonylphenyl)-2-(3,3-diphenylpropylamino)-1,3-propanediol maleate acid]
- LOCAL ANESTHETIC ACTIVITY ED50 (c.l. 95%) [1]: 0.73 (0.57-0.94) mM

Compound: CS(=O)(=O)c1ccc([C@H](O)[C@H](CO)NCCC(c2ccccc2)c2ccccc2)cc1 [Z. 1396]
- selectivity ratio (in vivo; ratio of LD50 (mouse, i.v.) to ED50 (guinea pig local infiltration), read-out: Therapeutic Index LD50/ED50): 0.5
- LD50 at 24 h (in vivo; mouse, administered as hydrochloride, observed for 24 hrs): 160 µmol/kg
- LOCAL ANESTHETIC ACTIVITY ED50 (c.l. 95%) [1]: 0.36 (0.21-0.60) mM
